From ChEMBL document CHEMBL4828719, “H2dpa derivatives containing pentadentate ligands: An acyclic adjuvant potentiates meropenem activity in vitro and in vivo against metallo-β-lactamase-producing Enterobacterales” (Eur J Med Chem, 2021)
pIC50: −log10 of the molar value. ≈ marks a conversion by molar mass, not a printed value. Calls of active or inactive are those of the source. The calls are words filed in the database; no cut-off is given here.

How the values were obtained:
[1] = Zinc chelation-dependent inhibition of VIM-2 (unknown origin) expressed in Escherichia coli BL21 (DE3) using nitrocefin as substrate preincubated with enzyme for 5 to 10 mins followed by substrate addition
[2] = Zinc chelation-dependent inhibition of NDM-1 (unknown origin) expressed in Escherichia coli DH5 alpha using meropenem as substrate preincubated with enzyme for 5 mins followed by substrate addition in the presence of zinc sulfate
[3] = Zinc chelation-dependent inhibition of IMP-1 (unknown origin) expressed in Escherichia coli DH5 alpha using imipenem as substrate preincubated with enzyme for 5 mins followed by substrate addition in the presence of zinc sulfate
[4] = Zinc chelation-dependent inhibition of IMP-4 (unknown origin) expressed in Escherichia coli BL21 (DE3) using imipenem as substrate preincubated with enzyme for 5 to 10 mins followed by substrate addition
[5] = Zinc chelation-dependent inhibition of VIM-2 (unknown origin) expressed in Escherichia coli DH5 alpha using nitrocefin as substrate preincubated with enzyme for 5 mins followed by substrate addition in presence of zinc sulfate
[6] = Zinc chelation-dependent inhibition of NDM-1 (unknown origin) expressed in Escherichia coli BL21 (DE3) using meropenem as substrate preincubated with enzyme for 5 to 10 mins followed by substrate addition
Escherichia coli [7] = experiment: Synergistic antibacterial activity against VIM-1 producing Escherichia coli DH5alpha assessed as fractional inhibitory concentration index incubated for 16 to 20 hrs in presence of meropenem by checkerboard assay; format: functional, DH5[alpha]; conditions: time 16-20 hrs
Escherichia coli [8] = experiment: Antibiotic adjuvant activity against VIM-1 producing Escherichia coli DH5alpha assessed as potentiation of meropenem-induced antibacterial activity incubated for 16 to 20 hrs by agar disc diffusion assay; format: functional, organism-based; conditions: DH5[alpha], time 16-20 hrs
Escherichia coli [9] = experiment: Antibiotic adjuvant activity against IMP-4 producing Escherichia coli DH5alpha assessed as potentiation of meropenem-induced antibacterial activity incubated for 16 to 20 hrs by agar disc diffusion assay; format: functional, organism-based; conditions: DH5[alpha], time 16-20 hrs
Escherichia coli [10] = experiment: Synergistic antibacterial activity against IMP-4 producing Escherichia coli DH5alpha assessed as fractional inhibitory concentration index incubated for 16 to 20 hrs in presence of meropenem by checkerboard assay; format: functional, DH5[alpha]; conditions: time 16-20 hrs
Escherichia coli [11] = experiment: Antibacterial activity against NDM-1 producing Escherichia coli DH5alpha assessed as decrease in bacterial growth incubated for 16 to 20 hrs by CLSI based microdilution method; format: functional; conditions: DH5[alpha], time 16-20 hrs
Escherichia coli [12] = experiment: Antibacterial activity against VIM-1 producing Escherichia coli DH5alpha assessed as decrease in bacterial growth incubated for 16 to 20 hrs by CLSI based microdilution method; format: functional; conditions: DH5[alpha], time 16-20 hrs
Escherichia coli [13] = experiment: Synergistic antibacterial activity against NDM-1 producing Escherichia coli DH5alpha assessed as fractional inhibitory concentration index incubated for 16 to 20 hrs in presence of meropenem by checkerboard assay; format: functional, DH5[alpha]; conditions: time 16-20 hrs
Escherichia coli [14] = experiment: Antibacterial activity against IMP-4 producing Escherichia coli DH5alpha assessed as decrease in bacterial growth incubated for 16 to 20 hrs by CLSI based microdilution method; format: functional; conditions: DH5[alpha], time 16-20 hrs
Escherichia coli [15] = experiment: Antibiotic adjuvant activity against NDM-1 producing Escherichia coli DH5alpha assessed as potentiation of meropenem-induced antibacterial activity incubated for 16 to 20 hrs by agar disc diffusion assay; format: functional, organism-based; conditions: DH5[alpha], time 16-20 hrs

Row | SMILES | pIC50 [1] | Activity [2] | Activity [3] | pIC50 [4] | Activity [5] | pIC50 [6] | MIC (Escherichia coli [11]) [µg/mL] | MIC (Escherichia coli [12]) [µg/mL] | MIC (Escherichia coli [14]) [µg/mL] | fractional inhibitory concentration index (FICI) (Escherichia coli [7]) | Activity (Escherichia coli [8]) | Activity (Escherichia coli [9]) | fractional inhibitory concentration index (FICI) (Escherichia coli [10]) | fractional inhibitory concentration index (FICI) (Escherichia coli [13]) | Activity (Escherichia coli [15])
1 | O=C(O)CN(CCN(CC(=O)O)CC(=O)O)CC(=O)O [EDETIC ACID] | < 3.70 | inactive | inactive | 4.90 | inactive | 5.76 |  |  |  |  |  |  |  |  | 
2 | C[C@H](CS)C(=O)N1CCC[C@H]1C(=O)O [CAPTOPRIL] |  | Active | Active |  | Active |  |  |  |  |  |  |  |  |  | 
3 | O=C(O)c1cccc(CN(CCP(=O)(O)O)Cc2cccc(C(=O)O)n2)n1 | 5.69 |  |  | 5.32 |  | 5.78 | 128 (≈ 324 µM) | 128 (≈ 324 µM) | 128 (≈ 324 µM) | 0.07 | Active | Active | 0.14 | 0.07 | Active
4 | N[C@@H](CN[C@@H](CN[C@@H](CC(=O)O)C(=O)O)C(=O)O)C(=O)O | < 3.70 |  |  | 5.02 |  | 5.40 |  |  |  |  |  |  |  |  | 

Continued, in another order:

Row | pIC50 [1] | Activity [2] | Activity [3] | pIC50 [4] | Activity [5] | pIC50 [6] | MIC (Escherichia coli [11]) [µg/mL] | MIC (Escherichia coli [12]) [µg/mL] | MIC (Escherichia coli [14]) [µg/mL] | SMILES | fractional inhibitory concentration index (FICI) (Escherichia coli [7]) | Activity (Escherichia coli [8]) | Activity (Escherichia coli [9]) | fractional inhibitory concentration index (FICI) (Escherichia coli [10]) | fractional inhibitory concentration index (FICI) (Escherichia coli [13]) | Activity (Escherichia coli [15])
5 | 5.82 |  |  | 5.41 |  | 5.78 | 128 (≈ 371 µM) | 128 (≈ 371 µM) | 128 (≈ 371 µM) | O=C(O)CN(Cc1cccc(C(=O)O)n1)Cc1cccc(C(=O)O)n1 | 0.07 | Active | Active | 0.14 | 0.07 | Active
6 | 5.98 |  |  | 5.98 |  | 5.81 | 128 (≈ 446 µM) | 128 (≈ 446 µM) | 128 (≈ 446 µM) | O=C(O)c1cccc(CNCc2cccc(C(=O)O)n2)n1 | 0.07 | Active | Active | 0.14 | 0.07 | Active
